Results on six compounds are retold here after paper PMC9502836, “Zika Virus Inhibitors Based on a 1,3-Disubstituted 1H-Pyrazolo[3,4-d]pyrimidine-amine Scaffold” (Molecules, 2022).

For data set [1], the system named is ZIKV. Also on record: method as in PMID 34206327. As to conditions: Huh7 cells, cited from earlier work; for EC50: read-out: Titer Reduction Assay EC50.
In data set [2] the test system is Huh7 cells. Also on record: method as in PMID 34206327. As to conditions: cited from earlier work.
Data set [3] concerns luciferase reporter ZIKV. In words: luciferase-based ZIKV reporter assay in Huh7 cells. The format is cell-based. As to conditions: Zika virus, Huh-7, 72 h, read-out: ZIKV Reporter Assay Inhibition (%) at 10 µM. As for the experimental part:
(§1) In the current study, we continued to use our previously reported luciferase-based ZIKV reporter assay as a primary antiviral screening, by which newly synthesized compounds were tested (at 10 µM) along with NITD008 (Figure 1, at 1 µM), a flavivirus RNA-dependent RNA polymerase (RdRp) inhibitor, and NSC 12155 (Figure 1, at 10 µM), a flavivirus NS5 methyltransferase (MTase) inhibitor, as reference compounds (Table 1). […] For active compounds (>60% titer-reduction), dose-response experiments were performed to determine EC50 (half maximal effective concentration, a concentration that is needed to cause half of the maximum possible pharmacological effect) and CC50 (half cytotoxic concentration, a concentration that is required to reduce cell viability by 50%) values. For selected compounds, EC50 values in the reporter assay were also measured.
(§2) The ZIKV reporter assay and titer-reduction assay were performed as previously reported. Briefly, Huh7 cells (1.5 × 10^4) were seeded in a 96-well plate and inoculated with a luciferase reporter ZIKV (MOI=0.2). After two hours, the cells were treated with medium containing the compound (10 µM). After 3 days post-infection, the cells were lysed, the Nanoluc signal was detected using the Nano-Glo® luciferase assay (Promega), then measured using a Neo 2 plate reader (BioTek, Winooski, VT, USA). For titer-reduction assays, 1.5 × 10^5 Huh7 cell were seeded in a 24-well plate. Next day, the cells were inoculated with ZIKV for two hours. The inoculum was replaced with compound-containing medium (8.5 µM) and incubated for 3 days. Supernatants were collected and viral titers were estimated by plaque assay.

In data set [4] the test system is ZIKV. In words: ZIKV titer reduction assay (plaque assay of supernatants) in Huh7 cells. The format is cell-based. Particulars: Zika virus, Huh-7, 72 h; 8.5 µM compound, Huh7 cells, 3 days; read-out: Titer Reduction Assay % at 8.5 µM. As to the method:
as §1, §2

Data set [5] can be described thus: Cell viability (CC50) assay, MTS-based. As to conditions: human; 10 µM compound, Huh7 cells, 3 days; read-out: ZIKV Reporter Assay Viability (%) at 10 µM. As for the experimental part: as §1
The cell viability assay was performed in Huh7 cells as previously reported. Briefly, non-infected Huh7 cells were treated with the testing compounds for 3 days. Viability was measured by absorbance at […] using the MTS-based tetrazolium reduction CellTiter 96 Aqueous Non-Radioactive cell proliferation assay (Promega).

In data set [6] the test system is luciferase reporter ZIKV. As to conditions: Huh7 cells, cited from earlier work.

As to `O=[N+]([O-])c1ccc(Cn2ccc3c(NCc4cccc(Cl)c4)ncnc32)cc1` [Compound 1], the EC50 in data set [1] was 5.2 µM. Moreover, the CC50 in data set [2] is 20 µM.
Take `Cc1cccc(OCc2nn(Cc3ccc([N+](=O)[O-])cc3)c3ncnc(N)c23)c1` [Compound 27, 1-(4-Nitrobenzyl)-3-((m-tolyloxy)methyl)-1H-pyrazolo[3,4-d]pyrimidin-4-amine]: in data set [3], the inhibition at 10 µM came to 71%. In data set [4], the inhibition at 8.5 µM was 53%. For the same compound, the viability at 3 days, 10 µM in data set [5] turned out to be 82%.
For `Cc1ccc(OCc2nn(Cc3ccc([N+](=O)[O-])cc3)c3ncnc(N)c23)cc1` [Compound 28, 1-(4-Nitrobenzyl)-3-((p-tolyloxy)methyl)-1H-pyrazolo[3,4-d]pyrimidin-4-amine] the same measures were 65%, 34% and 85%.
For the compound `Nc1ncnc2c1c(COc1cccc(Cl)c1)nn2Cc1ccc([N+](=O)[O-])cc1` [Compound 30, 3-((3-Chlorophenoxy)methyl)-1-(4-nitrobenzyl)-1H-pyrazolo[3,4-d]pyrimidin-4-amine], the inhibition at 10 µM in data set [3] turned out to be 52%. Moreover, the inhibition at 8.5 µM in data set [4] turned out to be 11%. The viability at 3 days, 10 µM in data set [5] was found to be 93%.
For `Nc1ncnc2c1c(COc1ccc(Cl)cc1)nn2Cc1ccc([N+](=O)[O-])cc1` [Compound 31, 3-((4-Chlorophenoxy)methyl)-1-(4-nitrobenzyl)-1H-pyrazolo[3,4-d]pyrimidin-4-amine] the same measures were 60%, 40% and 94%.
Turning to `Cc1cc(N)c2cc(NC(=O)Nc3ccc4nc(C)cc(N)c4c3)ccc2n1` [NSC 12155], the “ZIKV Reporter Assay Inhibition (%) at 10 µM” value in data set [6] (10 µM) was 68%. Further, the EC50 is 2.18 µM in data set [6] and 7.34 µM in data set [1]. The “Titer Reduction Assay % at 8.5 µM” value in data set [1] (8.5 µM) was 72%. The “ZIKV Reporter Assay Viability (%) at 10 µM” value in data set [2] (10 µM) is 70%. For the same compound, the CC50 in data set [2] is 23 µM.
